Measurements: patent US9302993B2, “8-hydroxy quinoline derivatives” (PRANA BIOTECHNOLOGY LIMITED, priority 2002, dated 2016)

Legend:
[1] = target: T1, hydrogen peroxide generation by Aβ in the presence of copper (Homo sapiens, UniProt P05067); assay: Fluorometric H2O2 assay (Assay 1); format: biochemical; conditions: Aβ 1-42 with Cu-Gly, DCF/HRP, 37 C 60 min; several values in one cell = repeat determinations; read-out: Peroxide IC50
T1 construct: The reaction solutions contained Aβ 1-42 at concentrations in the range of 50 nM to 1 μM
T1 sequence (P05067 672-713 limits assumed): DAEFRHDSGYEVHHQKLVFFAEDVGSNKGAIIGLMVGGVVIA
How it was run: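 Aβ1-42 (50 nM–1 μM) with Cu-glycine (2 Cu-Gly : 1 Aβ) and a reductant (dopamine 5 μM or ascorbic acid) was incubated 60 min at 37 °C in PBS pH 7.4 with test compound. H2O2 was detected with 100 μM deacetylated DCF and 0.1 μM HRP by fluorescence against H2O2 standards.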

[2] = system: Neuronal cortical cells treated with Aβ1-42; assay: Assay for Aβ neurotoxicity and Aβ neuroprotection (Assay 3(c)); format: cell-based, mouse; conditions: 20 uM Aβ1-42, 4 days, MTS
[3] = system: transgenic Huntington's mice (R6/2); assay: PBT1033 effects in transgenic Huntington's mice (Example 22); format: in vivo, mouse
Description: This example describes an in vivo study of PBT1033 in transgenic Huntington's mice (R6/2) using the procedure of Nyuyen, Harby and Massa, 2005. During this study, 44 samples were collected for behavioral tests, including Rotarod performance, clasping tests, body weight and lifespan observations, and 24 samples were utilized for pathology assessments, including brain sectioning and staining for measuring lateral ventricle size, brain weight, whole brain western blotting for mutant Htt aggregate accumulation, and immunocytochemistry for Htt aggregates.
GROUP A: 10+6 (pathology) R6/2 MICE, treated daily with PBT1033
GROUP B: 10+6 (pathology) R6/2 MICE, treated daily with SSV solution
GROUP C: 12+6 (pathology) wild type (WT) mice, treated daily with PBT1033
GROUP D: 12+6 (pathology) WT mice, treated daily with SSV solution
3. PBT1033 in SSV solution was orally administered to mice at 0.6 mg/0.1 ml ([…])/20 g. The PBT1033 solution was taken up into a 1-cc syringe attached to a feeding needle and the drug was delivered by oral gavage.
4. Rotarod was assessed as described by Hockly et al., the contents of which are incorporated by reference, with the modification that the SDI Rota—Rod (San Diego Instruments, San Diego), was set to linearly increase in speed to 40 rpm in 4-min ramp time. Performance is at 4th, 8th, 10th, and 12th week, with three days (one for training) per period and three times per day.
5. Body Weight: once per week, start at age 3 weeks.
6. Clasping testing and Behavioral observation: once per week from 5th week and daily during the drug treating.
7. Lifespan observation: Group A and B were treated until they died.
8. Brain lateral ventricle size: mouse brain perfusion, sectioning and staining at age 10 weeks. Mice brains were perfused and fixed with 4% PFA and stained with H&E.
9. Whole Brain Western Blotting: whole mouse brain was homogenized in buffer (10 mM Tris HCl (pH 7.4) 11 mM EDTA Na2/1% Triton X100/complete protease inhibitor mixture and then centrifuged at 7000×g for 90 s. The supernatant was boiled in SDS sample buffer for 5 mm at 100° C.
40 micrograms of total protein was run on a 10% SDS gel with a 4% stacking gel. Antibody: anti-GAPDH (1:5000), EM48 anti-Htt antibody (1:1000)
10. Brain weight: brain weighed before freezing at −80° C.
11. Immunohistochemistry was performed in accordance with the procedure in Assay 15, hereinabove.

[4] = Toxicity at 30 mg/kg (In vivo Efficacy and Safety Profile)
[5] = Mice plasma concentration; format: in vivo

## CN(C)Cc1ccc2c(Cl)cc(Cl)c(O)c2n1.Cl [compound 1033, 5,7-Dichloro-2-dimethylaminomethyl-quinolin-8-ol hydrochloride]
[1]
  IC50: 380 nM
[2]
  % inhibition Abeta toxicity: 38%
[3]; Group A (PBT1033) compared with Group B (SSV)
  life span: survived significantly longer
[3]; Group B (SSV) compared with Group A (PBT1033)
  clasping latency and duration: significantly greater
[3]; Group B (SSV) vs A, C and D groups
  body weight: significantly decreased
[3]; R6/2 mice, Group A
  brain weight: 0.373±0.0228
[3]; R6/2 mice, Group A, 10th week
  rotarod performance time: 28 ± 4 s
[3]; R6/2 mice, Group A, 12 week
  rotarod performance time: 26 ± 4 s
[3]; R6/2 mice, Group A, age 10 weeks
  Lateral ventricle area: 0.36±0.086 mm^2
[3]; whole brain, HDexon1 mice
  mutant Huntingtin (Htt) protein aggregates, Western analysis: not in treated animals
[4]
  Toxicity at 30 mg/kg: None
[5]
  Mice plasma concentration: Up to 500 ng/ml

## O=C(NCCc1c[nH]cn1)c1ccc2c(Cl)cc(Cl)c(O)c2n1 [compound 1038, 5,7-Dichloro-8-hydroxyquinoline-2-carboxylic acid [2-(1H-imidazol-4-yl)-ethyl]-amide]
[2]
  % inhibition Abeta toxicity: 19%

## Cn1cnc(CCNC(=O)c2ccc3c(Cl)cc(Cl)c(O)c3n2)c1 [compound 1050, 5,7-dichloro-8-hydroxyquinoline-2-carboxylic acid [2-(1-methyl-1H-imidazol-4-yl)-ethyl]-amide]
[1]
  IC50: 280 nM
[2]
  % inhibition Abeta toxicity: 6%

## CCNCc1ccc2c(Cl)cc(Cl)c(O)c2n1.Cl [compound 1051, 5,7-dichloro-2-ethylaminomethyl-quinolin-8-ol hydrochloride]
[2]
  % inhibition Abeta toxicity: 23%
